Source: US6794408B2, “Drechsleranol derivatives, processes for their preparation and their use” (Aventis Pharma Deutschland GmbH, priority 2002, dated 2004)

Tests used:
JNK-3 = JNK-3 (Homo sapiens, UniProt P53779); experiment: JNK-3 assay (HTRF, JNK-3/GST-ATF2); assay type: biochemical; settings: ATP 15 μM, 37° C., 20 minutes
Description: The assay is carried out on a CyBio pipetter system in a 384-hole plate format. The assay contains 10 μL of sample (extract or pure substance, for example a compound of formula (II) or of formula (III)) in 3% DMSO, 10 μL of an enzyme/substrate mixture (JNK-3/GST-ATF2) and 10 μL of ATP in a final volume of 30 μL. After incubation at 37° C. for 20 minutes, 50 μL of the HTRF antibody mixture (XL665-anti-GST/(Eu)cryptate anti-P-ATF2) are added. After 120 minutes at room temperature, the signal emission of the energy transfer and of europium at 665 and 615 nm is measured after the samples have been stimulated at 340 nm in a Victor^2 (WALLAC).
Buffer I for the Dilution of JNK3, GST-ATF2, ATP:
Buffer II for the Dilution of the HTRF Reagents:
Each plate contains 16 positive controls (maximum energy transfer, buffer I instead of samples), 8 blank controls (minimum energy transfer, buffer II instead of ATP) and 8 holes which contain EDTA 200 μM.
The results are calculated as follows:
Firstly, the signal ratio=(intensity (665 nm)/intensity (615 nm)) is determined. A blank correction is then made using the following formula:
delta F(%)=[(ratio (sample)−ratio(minimum))/(ratio (minimum))]×100
The activity of the samples is then calculated in the following manner:
Inhibition (%)=100×[1−(delta F(sample)/delta F(maximum))]

hCK1ε = hCK1ε (Homo sapiens, UniProt P49674); experiment: hCK1ε assay (33P-ATP, casein-coated plates); assay type: biochemical; settings: 0.4 μM cold ATP, 37° C., one hour
Description: The assay is carried out in a Jobi-Well (CyBio) and Biomek 2000 pipetter system in the 384-hole plate format. The 384-hole plates are coated with 50 μL per well of a casein solution of the concentration 100 μg/mL in coating buffer (corresponds to 5 μg of casein per well, casein Sigma) and stored overnight at 4° C. Washing four times with 90 μL of wash solution 1 (50 mM HEPES pH 7.4 and 150 mM NaCl) is then carried out. The reaction is carried out in a final volume of 50 μL. During the course of this, 10 μL of dilute natural substance extract in each case, for example a compound of formula (II) or a compound of formula (III), 20 μL of hCK1ε enzyme solution (corresponds to 29 ng of […] per well) and 20 μL of ATP solution (final concentration: 0.4 μCi of ^33P-γ-ATP radiolabeled (“hot”) and 0.4 μM of cold ATP per well) are pipetted onto the coated plates. The plates are then incubated at 37° C. for one hour. The plates are then washed four times with 75 μL of wash solution 2 (phosphoric acid, 3%) and measured for 30 seconds in a MicroBeta Trilux counter (WALLAC).
hCK1ε Enzyme Solution: 1.45 μg of Recombinant hCK1ε per mL of Kinase Buffer
ATP Solution: 20 μCi/mL of ^33P-γ-ATP and 1 μM of Cold ATP […]
The inhibition of a sample can be calculated according to the following formula: […]

JNK-3, sequence (P53779 whole entry): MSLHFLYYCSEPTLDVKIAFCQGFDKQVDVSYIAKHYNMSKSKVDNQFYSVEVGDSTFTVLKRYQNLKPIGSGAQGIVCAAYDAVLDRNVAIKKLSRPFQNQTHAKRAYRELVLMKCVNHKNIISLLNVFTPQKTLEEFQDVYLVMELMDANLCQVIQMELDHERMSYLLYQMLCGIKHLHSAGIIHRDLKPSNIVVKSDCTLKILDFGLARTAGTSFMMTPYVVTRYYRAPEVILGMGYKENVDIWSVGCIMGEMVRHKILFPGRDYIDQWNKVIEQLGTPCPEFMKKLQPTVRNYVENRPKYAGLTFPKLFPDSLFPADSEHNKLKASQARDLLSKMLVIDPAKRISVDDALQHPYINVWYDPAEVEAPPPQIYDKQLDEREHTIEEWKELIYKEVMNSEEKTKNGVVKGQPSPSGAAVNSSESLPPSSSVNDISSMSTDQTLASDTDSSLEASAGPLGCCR
hCK1ε, sequence (P49674 whole entry): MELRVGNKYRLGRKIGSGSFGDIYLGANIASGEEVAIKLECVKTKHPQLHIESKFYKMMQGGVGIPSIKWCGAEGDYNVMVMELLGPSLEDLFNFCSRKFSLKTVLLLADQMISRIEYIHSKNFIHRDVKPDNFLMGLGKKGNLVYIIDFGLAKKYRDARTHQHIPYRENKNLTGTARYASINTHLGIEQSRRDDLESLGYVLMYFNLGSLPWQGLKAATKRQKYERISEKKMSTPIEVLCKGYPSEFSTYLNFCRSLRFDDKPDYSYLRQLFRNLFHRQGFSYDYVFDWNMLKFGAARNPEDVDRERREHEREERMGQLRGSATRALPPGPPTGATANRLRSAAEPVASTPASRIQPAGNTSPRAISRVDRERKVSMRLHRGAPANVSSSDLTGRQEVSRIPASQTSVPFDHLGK

| SMILES | IC50 (JNK-3) | IC50 (hCK1ε) |
| --- | --- | --- |
| Oc1cccc2ccc3c4ccc5cccc(O)c5c4oc3c12 [Compound III] | 2.8 µM | – |
| OCC(O)C(O)C(O)C(O)C(O)c1cc2c3ccc4cccc(O)c4c3oc2c2c(O)cccc12 (stereo not drawn) [Compound II] | 1.1 µM | 2.9 µM |
